# Literature values, collected in paper PMC6024615, “Effect of Biliary Drainage on the Toxicity and Toxicokinetics of Amanita exitialis in Beagles” (Toxins, 2018).
# Key:
# [1] = intravenous injection, general anesthesia, radioactivity; cited from earlier work
# Description: In previous studies, the radioactivity of labeled amatoxins in the serum of dogs or pigs was determined after an intravenous injection of amatoxins; bile was collected and measured using tubes tied to the bile duct under general anesthesia. More than 80% of 14C-methyl-γ-amanitin (14C-A) was eliminated in the urine, with less than 10% in the bile. Different toxin exposure patterns might result in different toxicokinetic data. 14C-A and 3H-O-methyl-dehydroxymethyl-α-amanitin (3H-A) were used for toxicokinetic studies in the animals; the animals were under general anesthesia du ...
# [2] = human and rats; cited from earlier work
# Description: Vesconi et al. found amatoxins were detectable in the serum of 65% patients within 30 h after ingestion of Amanita phalloides. In another study in patients intoxicated with Amanita phalloides, amatoxins were detectable in the plasma of most patients within 36 h after ingestion. […] These toxins were rapidly detected (30 min) in plasma and ...
Substance,share eliminated in the bile [1],share eliminated in the urine [1],reduction in absorption from the intestinal lumen caused by bile exclusion [2]
14C-methyl-γ-amanitin,less than 10%,More than 80%,
vitamin B12,,,50–60%
